Results from ChEMBL document CHEMBL1151463, “Human immunodeficiency virus types 1 and 2 exhibit comparable sensitivities to Zidovudine and other nucleoside analog inhibitors in vitro” (Antimicrob Agents Chemother, 2008).
The source made the active and inactive calls. No cut-off for these calls is given here.

Columns and labels:
[1] = tested on: Human immunodeficiency virus 2; assay: Antiviral activity against wild type HIV2 ROD produced from full length pROD9 infected in human MAGIC-5A cells assessed as inhibition of Lac+ foci expression after 40 hrs; format: functional, organism-based; conditions: for EC50: Human immunodeficiency virus 2, ISOLATE ROD
[2] = tested on: Human immunodeficiency virus 1; assay: Selectivity ratio of EC50 for multinucleoside-resistant HIV1 NL4-3 harboring A62V, V75I, F77L, F116Y, Q151M mutation in viral reverse transcriptase to EC50 for wild type HIV1 NL4-3; format: functional
[3] = tested on: Human immunodeficiency virus 1; assay: Antiviral activity against multinucleoside-resistant HIV1 NL4-3 harboring A62V, V75I, F77L, F116Y, Q151M mutation in viral reverse transcriptase infected in human MAGIC-5A cells assessed as inhibition of Lac+ foci expression after 40 hrs; format: functional, organism-based; conditions: Human immunodeficiency virus 1, NL4-3, MAGIC-5A
[4] = tested on: Human immunodeficiency virus 1; assay: Antiviral activity against wild type HIV1 NL4-3 produced from full length pR9deltaApa infected in human MAGIC-5A cells assessed as inhibition of Lac+ foci expression after 40 hrs; format: functional, organism-based; conditions: Human immunodeficiency virus 1, NL4-3, MAGIC-5A
[5] = tested on: Human immunodeficiency virus 2; assay: Antiviral activity against wild type HIV2 CDC310319 infected in human MAGIC-5A cells assessed as inhibition of Lac+ foci expression after 40 hrs; format: functional, organism-based
[6] = tested on: Human immunodeficiency virus 2; assay: Antiviral activity against recombinant HIV2 ROD carrying HIV2 UC2 reverse transcriptase infected in human MAGIC-5A cells assessed as inhibition of Lac+ foci expression after 40 hrs; format: functional, organism-based; conditions: Human immunodeficiency virus 2, ISOLATE ROD

SMILES	EC50 [1] [µM]	Ratio EC50 [2]	EC50 [3] [µM]	EC50 [4] [µM]	Activity ([1]; ISOLATE ROD)	Activity [5]	EC50 [6] [µM]
Nc1nc(NC2CC2)c2ncn([C@H]3C=C[C@@H](CO)C3)c2n1 [ABACAVIR]	7.2	5	40	7.6			
C[C@H](Cn1cnc2c(N)ncnc21)OCP(=O)(O)O [TENOFOVIR ANHYDROUS]	7.2	4	26	7.2			
Cc1cn([C@H]2C[C@H](N=[N+]=[N-])[C@@H](CO)O2)c(=O)[nH]c1=O [ZIDOVUDINE]	0.12	43	7	0.16	Dose-dependent effect	Active	0.071
O=c1[nH]cnc2c1ncn2[C@H]1CC[C@@H](CO)O1 [DIDANOSINE]	8	10	45	4.7			
Nc1ccn([C@@H]2CS[C@H](CO)O2)c(=O)n1 [LAMIVUDINE]	2	4	3.7	0.88			
Nc1nc(=O)n([C@@H]2CS[C@H](CO)O2)cc1F [EMTRICITABINE]	0.5	3	0.79	0.27			
Cc1cn([C@H]2C=C[C@@H](CO)O2)c(=O)[nH]c1=O [STAVUDINE]	7.1	14	79	5.5			
